Read-outs that look alike come from different tables or passages of the source.
Test system: HIV-1 (H9IIIB or NL4-3 virus) replication in MT4-GFP cells
Assay: microbe, parasite or virus in culture
Type: cell-based
Conditions: inhibition of reproductive ratio R0, 48-72 h post-infection
[1] = Human immunodeficiency virus 1, NL43, MT4-GFP cells infected with HIV-1, 100% normal human serum, read-out: ViKinG IP (nM) with 100% NHS
[2] = Human immunodeficiency virus 1, NL43, MT4-GFP cells infected with HIV-1, serum free conditions (0% NHS), read-out: ViKinG IP (nM) with 0% NHS
[3] = MT4-GFP cells infected with HIV-1, 100% normal human serum, read-out: ViKinG IP (nM) with 100% NHS
[4] = MT4-GFP cells infected with HIV-1, serum free conditions (0% NHS), read-out: ViKinG IP (nM) with 0% NHS
[5] = Human immunodeficiency virus 1, NL43, MT4-GFP cells infected with HIV-1, 10% normal human serum, read-out: ViKinG IP (nM) with 10% NHS

SMILES | IC50 [1] | IC50 [2] | IC50 [3] | further results
CCOCCN1C(=O)c2c(O)c(=O)c(C(=O)NCc3ccc(F)cc3F)cn2CC12CCOC2 (single isomer, unassigned) [Compound 77] | 96 nM | 3 nM | – | –
CN1C(=O)c2c(O)c(=O)c(C(=O)NCc3ccc(F)cc3)cn2N(C)C12CCOC2 (single isomer, unassigned) [Compound 113] | 94 nM | 1.5 nM | – | –
CCN1C(=O)c2c(O)c(=O)c(C(=O)NCc3ccc(F)cc3F)cn2CC12CCCOC2 (stereo not shown) [Compound 82] | – | – | 680 nM | IC50 [4]: 3.1 nM
CN1C(=O)c2c(O)c(=O)c(-c3nnc(Cc4ccc(F)cc4)s3)cn2N(C)C12CCOC2 (stereo not shown) [Compound 38] | 132 nM | 3.8 nM | – | –
CN1C(=O)c2c(O)c(=O)c(C(=O)NCc3ccc(F)c(Cl)c3F)cn2N(C)C12CCOC2 (single isomer, unassigned) [Compound 118] | – | – | 101 nM | –
COCN1n2cc(C(=O)NCc3ccc(F)cc3F)c(=O)c(O)c2C(=O)N(C)C12CCOC2 (single isomer, unassigned) [Compound 153] | – | 1.3 nM | 275 nM | –
CN1C(=O)c2c(O)c(=O)c(C(=O)NCc3cccc(Cl)c3F)cn2N(C)C12CCOC2 (single isomer, unassigned) [Compound 110] | – | – | 121 nM | –
COCCN1C(=O)c2c(O)c(=O)c(C(=O)NCc3ccc(F)cc3F)cn2N(C)C12CCOC2 (single isomer, unassigned) [Compound 121] | – | 1.8 nM | 575 nM | IC50 [5]: 39 nM
CN1C(=O)c2c(O)c(=O)c(C(=O)NCc3ccc(F)cc3F)cn2N(C)C12COC2 [Compound 143] | 78 nM | 1.4 nM | – | IC50 [5]: 7 nM
CN1C(=O)c2c(O)c(=O)c(-c3nnc(Cc4ccc(F)cc4F)s3)cn2CC12CCOC2 (stereo not shown) [Compound 101] | 70 nM | 4.6 nM | – | –
CCN1C(=O)c2c(O)c(=O)c(C(=O)NCc3ccc(F)cc3F)cn2N(C)C12COC2 [Compound 144] | 591 nM | 1.5 nM | – | IC50 [5]: 60 nM
CCN1C(=O)c2c(O)c(=O)c(C(=O)NCc3ccc(F)cc3F)cn2N(C)C12CCOC2 (single isomer, unassigned) [Compound 120] | – | – | 266 nM | IC50 [4]: 2.1 nM
CCN1n2cc(C(=O)NCc3ccc(F)cc3F)c(=O)c(O)c2C(=O)N(C)C12CCOC2 (single isomer, unassigned) [Compound 149] | – | 0.7 nM | 144 nM | –
CC1OCCC12N(C)C(=O)c1c(O)c(=O)c(C(=O)NCc3ccc(F)cc3F)cn1N2C (single isomer, unassigned) [Compound 131] | – | 0.8 nM | 114 nM | –
COCCN1C(=O)c2c(O)c(=O)c(C(=O)NCc3ccc(F)c(F)c3F)cn2CC12CCOC2 (single isomer, unassigned) [Compound 72] | – | – | 290 nM | IC50 [4]: 4.6 nM
COCCN1C(=O)c2c(O)c(=O)c(C(=O)NCc3ccc(F)cc3F)cn2CC12CCOC2 (single isomer, unassigned) [Compound 50] | – | – | 107 nM | IC50 [4]: 3.1 nM
CC(=O)N1CCC2(CC1)N(C)C(=O)c1c(O)c(=O)c(-c3nnc(Cc4ccc(F)cc4F)s3)cn1N2C [Compound 23] | – | – | – | IC50 [5]: 100 nM
COCCCN1C(=O)c2c(O)c(=O)c(C(=O)NCc3ccc(F)cc3F)cn2CC12CCCOC2 (single isomer, unassigned) [Compound 86] | – | – | 177 nM | IC50 [4]: 9.3 nM
CCCN1C(=O)c2c(O)c(=O)c(C(=O)NCc3ccc(F)cc3F)cn2CC12CCOC2 (racemic) [Compound 67] | 3600 nM | 6.6 nM | – | –
O=C(NCc1ccc(F)cc1F)c1cn2c(c(O)c1=O)C(=O)N(CCCC(F)(F)F)C1(CCOCC1)C2 [Compound 46] | 110 nM | 3.2 nM | – | –
COCCN1C(=O)c2c(O)c(=O)c(C(=O)NCc3ccc(F)cc3F)cn2CC12CCOC2 (single isomer, unassigned) [Compound 49] | 123 nM | 2.9 nM | – | –
COCCCN1C(=O)c2c(O)c(=O)c(C(=O)NCc3ccc(F)cc3F)cn2N(C)C12CCOC2 (single isomer, unassigned) [Compound 123] | – | 1.2 nM | 117 nM | IC50 (MT4-GFP cells infected with HIV-1, 10% normal human serum, read-out: ViKinG IP (nM) with 10% NHS): 9 nM
CCOC(=O)N1CCC2(C1)N(CC)C(=O)c1c(O)c(=O)c(C(=O)NCc3ccc(F)cc3F)cn1N2C (single isomer, unassigned) [Compound 140] | – | – | 48 nM | IC50 [4]: 1.7 nM
CCN1C(=O)c2c(O)c(=O)c(-c3nnc(Cc4ccc(F)cc4F)s3)cn2N(C)C12CCOC2 (single isomer, unassigned) [Compound 36] | – | – | 368 nM | IC50 [4]: 3.8 nM

From patent publication US9707234B2, “Spirocyclic hetercycle compounds useful as HIV integrase inhibitors” (MERCK SHARP & DOHME CORP., priority 2013, dated 2017)
